Measured values taken from PMC12309256 (Current Research in Microbial Sciences, 2025).

System: AsDddY
Assay: HPLC of acrylate, initial rates, nonlinear Michaelis-Menten fit
Assay type: biochemical, Acinetobacter sp. ZS25
Conditions: pH 8.0, 50 °C; 0.5 nM enzyme; DMSP 1-20 mM

## C[S+](C)CCC(=O)[O-] [DMSP, dimethylsulfoniopropionate]
  Km: 2600 µM
